Here are results for 1 substance from PMC5908784, “Extracellular loops 2 and 3 of the calcitonin receptor selectively modify agonist binding and efficacy” (Biochemical Pharmacology, 2018).

Changes are numbered by the printed parent chain. Where no end group is shown, it is not given here.

Holding throughout (assay): Homologous whole cell competition binding
Common to all, as to conditions: homologous competition of 125I-sCT(8-32), whole cells, mean ± S.E.M., SEM

Experiment [1] addresses T1, hCTR L298A (Homo sapiens, UniProt P30988, L298A).
T1 construct: c-Myc (N); expressed in transfected cells
T1 sequence (P30988 25-474 L298A): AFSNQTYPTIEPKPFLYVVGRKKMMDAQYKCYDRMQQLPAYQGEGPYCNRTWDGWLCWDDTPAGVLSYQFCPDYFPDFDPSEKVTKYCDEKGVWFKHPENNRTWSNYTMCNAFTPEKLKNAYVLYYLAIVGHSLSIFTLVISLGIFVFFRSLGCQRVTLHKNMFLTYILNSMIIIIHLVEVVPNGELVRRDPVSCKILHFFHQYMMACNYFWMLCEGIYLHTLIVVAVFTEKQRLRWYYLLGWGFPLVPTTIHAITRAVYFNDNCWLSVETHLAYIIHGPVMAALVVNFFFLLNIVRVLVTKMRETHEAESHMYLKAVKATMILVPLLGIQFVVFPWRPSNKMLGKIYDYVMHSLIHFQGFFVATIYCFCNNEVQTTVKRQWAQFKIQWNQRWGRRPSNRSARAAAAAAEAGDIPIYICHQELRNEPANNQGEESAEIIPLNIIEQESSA
In short, it runs like this: (§1)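 Cells were seeded, cultured overnight, then exposed overnight at 4 °C to two concentrations of ^125I-sCT(8-32) with increasing unlabelled sCT(8-32). Unbound ligand was washed off before counting. Affinity is given as pKi after radioligand occupancy correction.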

The target in experiment [2] is T2, hCTR T295A (Homo sapiens, UniProt P30988, T295A).
T2 construct: c-Myc (N); expressed in transfected cells
T2 sequence (P30988 25-474 T295A): T1 sequence (P30988 25-474 L298A) with T271A, A274L
In short, it runs like this: as §1

The target of experiment [3] is T3, hCTR M367A (Homo sapiens, UniProt P30988, M367A).
T3 construct: c-Myc (N); expressed in transfected cells
T3 sequence (P30988 25-474 M367A): T1 sequence (P30988 25-474 L298A) with A274L, M343A
In outline: as §1

For experiment [4], the target named is T4, hCTR P363A (Homo sapiens, UniProt P30988, P363A).
T4 construct: expressed in transfected cells
T4 sequence (P30988 25-474 P363A): T1 sequence (P30988 25-474 L298A) with A274L, P339A
In outline: as §1

On to “VLGKLSQELHKLQTYPRTNTGSGTP-NH2 [sCT(8-32)]”, for which the Ki in experiment [1] was 0.148 nM; in experiment [2] it was 0.0501 nM; in experiment [3], 0.295 nM; in experiment [4], 0.355 nM.
